Our source for the MIC and Ratio values is ChEMBL document CHEMBL4665851, “Design, synthesis, antimycobacterial activity and molecular docking studies of novel 3- (N-substituted glycinamido) benzoic acid analogues as anti tubercular agents” (Bioorg Med Chem Lett, 2020).

Common to all, as to conditions: time 5.0 day
Assay [1] deals with Mycobacterium tuberculosis H37Rv. The assay is described as follows: Inhibition of MmA1 in Mycobacterium tuberculosis H37Rv assessed as reduction in bacterial growth incubated for 5 days by MABA assay. For orientation: Alamar Blue is a resazurin reagent that responds to reducing activity.
Assay [2] has the same test system. As to the kind of experiment: Potency index, ratio of ciprofloxacin MIC to test compound MIC for Inhibition of MmA1-mediated antitubercular activity against Mycobacterium tuberculosis H37Rv incubated for 5 days by MABA assay.
Assay [3] shares this test system. The assay is described as follows: Potency index, ratio of pyrazinamide MIC to test compound MIC for Inhibition of MmA1-mediated antitubercular activity against Mycobacterium tuberculosis H37Rv incubated for 5 days by MABA assay.
Assay [4] has the same test system. The assay is described as follows: Potency index, ratio of streptomycin MIC to test compound MIC for Inhibition of MmA1-mediated antitubercular activity against Mycobacterium tuberculosis H37Rv incubated for 5 days by MABA assay.

Each structure is given as a SMILES string. Converted amounts (≈) assume the structure as drawn.

As for `O=C(Cn1ccnc1)Nc1cccc(C(=O)O)c1`, in assay [1], the MIC stood at 12.5 µg/mL (≈ 51 µM).

Regarding `CN1CCN(CC(=O)Nc2cccc(C(=O)O)c2)CC1`, the MIC in assay [1] was determined as 1.6 µg/mL (≈ 5.77 µM). In addition, the Ratio in assay [2], in assay [3] and in assay [4] was > 2 in each case.

On to `NC(=O)c1cnccn1`, for which the MIC in assay [1] is 3.12 µg/mL (≈ 25.3 µM).

With `O=C(CNc1ccccc1)Nc1cccc(C(=O)O)c1`, the MIC in assay [1] was 6.25 µg/mL (≈ 23.1 µM).

Regarding `CCN(CC)CC(=O)Nc1cccc(C(=O)O)c1`, the MIC in assay [1] was found to be 3.12 µg/mL (≈ 12.5 µM).

On to `Cc1ccc(NCC(=O)Nc2cccc(C(=O)O)c2)cc1`, for which the MIC in assay [1] worked out at 6.25 µg/mL (≈ 22 µM).

For `O=C(O)c1cn(C2CC2)c2cc(N3CCNCC3)c(F)cc2c1=O`, the MIC in assay [1] stood at 3.12 µg/mL (≈ 9.42 µM).

Regarding `O=C(CNc1ccc(Br)cc1)Nc1cccc(C(=O)O)c1`, the MIC in assay [1] turned out to be 3.12 µg/mL (≈ 8.94 µM).

For `O=C(CNc1ccc(Cl)cc1)Nc1cccc(C(=O)O)c1`, in assay [1], the MIC stood at 6.25 µg/mL (≈ 20.5 µM).

Regarding `O=C(CN1CCCC1)Nc1cccc(C(=O)O)c1`, in assay [1], the MIC was found to be 1.6 µg/mL (≈ 6.44 µM). The Ratio in assay [2], in assay [3] and in assay [4] was > 2 throughout.

On to `CN[C@@H]1[C@H](O[C@H]2[C@H](O[C@H]3[C@H](O)[C@@H](O)[C@H](N=C(N)N)[C@@H](O)[C@@H]3N=C(N)N)O[C@@H](C)[C@]2(O)C=O)O[C@@H](CO)[C@H](O)[C@H]1O`, for which, in assay [1], the MIC came to 6.25 µg/mL (≈ 10.7 µM).

For the compound `O=C(CN1CCN(Cc2ccccc2)CC1)Nc1cccc(C(=O)O)c1`, the MIC in assay [1] was 3.12 µg/mL (≈ 8.83 µM).

For the compound `O=C(CNc1ccc(F)cc1F)Nc1cccc(C(=O)O)c1`, the MIC in assay [1] was 1.6 µg/mL (≈ 5.22 µM). The Ratio in assay [2], in assay [3] and in assay [4] was > 2 throughout.

Turning to `O=C(CN1CCCCC1)Nc1cccc(C(=O)O)c1`, the MIC in assay [1] stood at 1.6 µg/mL (≈ 6.1 µM). Also, the Ratio in assay [2], in assay [3] and in assay [4] was > 2 each time.

Regarding `O=C(CN1CCOCC1)Nc1cccc(C(=O)O)c1`, in assay [1], the MIC amounted to 25 µg/mL (≈ 94.6 µM).

On to `O=C(CNc1ccccn1)Nc1cccc(C(=O)O)c1`, for which, in assay [1], the MIC worked out at 12.5 µg/mL (≈ 46.1 µM).

Consider `O=C(CN1CCN(c2ccccc2)CC1)Nc1cccc(C(=O)O)c1`, for which, in assay [1], the MIC was determined as 1.6 µg/mL (≈ 4.71 µM). For the same compound, the Ratio in assay [2], in assay [3] and in assay [4] was > 2 throughout.

In the case of `O=C(CN1CCOCC1)Nc1cccc(C(=O)Nc2ccc3[nH]cnc(=O)c3c2)c1`, the MIC in assay [1] came out at 100 µg/mL (≈ 245 µM).
